Laboratory results from ChEMBL document CHEMBL5257076, “Design, synthesis, structure-activity relationship studies, and evaluation of novel GLS1 inhibitors” (Bioorg Med Chem Lett, 2023).
Activity calls are given as the source filed them. The calls are words filed in the database; no cut-off is given here.

What was measured:
[1] = target: T1, Glutaminase kidney isoform, mitochondrial (Mus musculus) (UniProt D3Z7P3); assay: Inhibition of GLS1 in mouse kidney extract at 10 mM; assay type: tissue-based
T1 sequence (whole entry): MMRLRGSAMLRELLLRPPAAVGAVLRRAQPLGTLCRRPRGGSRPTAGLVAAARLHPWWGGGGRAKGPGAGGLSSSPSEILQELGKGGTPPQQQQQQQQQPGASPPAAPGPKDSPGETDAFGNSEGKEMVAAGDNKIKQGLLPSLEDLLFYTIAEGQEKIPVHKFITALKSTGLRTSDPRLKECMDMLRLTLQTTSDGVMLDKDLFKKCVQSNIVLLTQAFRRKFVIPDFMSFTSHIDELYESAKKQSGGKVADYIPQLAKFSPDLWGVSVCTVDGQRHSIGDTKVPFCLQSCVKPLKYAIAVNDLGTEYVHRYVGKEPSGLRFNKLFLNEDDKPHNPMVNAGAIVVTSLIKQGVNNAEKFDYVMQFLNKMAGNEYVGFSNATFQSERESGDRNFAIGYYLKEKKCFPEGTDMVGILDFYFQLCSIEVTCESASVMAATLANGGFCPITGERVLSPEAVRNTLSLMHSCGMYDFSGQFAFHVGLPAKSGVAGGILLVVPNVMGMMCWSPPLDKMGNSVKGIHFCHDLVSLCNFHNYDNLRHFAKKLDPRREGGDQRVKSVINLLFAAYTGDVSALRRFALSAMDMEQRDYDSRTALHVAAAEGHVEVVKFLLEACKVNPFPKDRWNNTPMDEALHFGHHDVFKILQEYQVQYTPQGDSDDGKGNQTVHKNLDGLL

[2] = target: T1, Glutaminase kidney isoform, mitochondrial (Mus musculus); assay: Inhibition of GLS1 in mouse kidney extract at 1 mM relative to control; assay type: tissue-based
[3] = target: T1, Glutaminase kidney isoform, mitochondrial (Mus musculus); assay: Inhibition of mouse recombinant GLS1 glutaminase activity at 1 mM
[4] = target: T1, Glutaminase kidney isoform, mitochondrial (Mus musculus); assay: Inhibition of mouse recombinant GLS1 relative to control; conditions: concentration not given here
[5] = target: T2, Glutaminase kidney isoform, mitochondrial (Homo sapiens) (UniProt O94925); assay: Inhibition of human recombinant GLS1 at 1 mM relative to control
T2 sequence (whole entry): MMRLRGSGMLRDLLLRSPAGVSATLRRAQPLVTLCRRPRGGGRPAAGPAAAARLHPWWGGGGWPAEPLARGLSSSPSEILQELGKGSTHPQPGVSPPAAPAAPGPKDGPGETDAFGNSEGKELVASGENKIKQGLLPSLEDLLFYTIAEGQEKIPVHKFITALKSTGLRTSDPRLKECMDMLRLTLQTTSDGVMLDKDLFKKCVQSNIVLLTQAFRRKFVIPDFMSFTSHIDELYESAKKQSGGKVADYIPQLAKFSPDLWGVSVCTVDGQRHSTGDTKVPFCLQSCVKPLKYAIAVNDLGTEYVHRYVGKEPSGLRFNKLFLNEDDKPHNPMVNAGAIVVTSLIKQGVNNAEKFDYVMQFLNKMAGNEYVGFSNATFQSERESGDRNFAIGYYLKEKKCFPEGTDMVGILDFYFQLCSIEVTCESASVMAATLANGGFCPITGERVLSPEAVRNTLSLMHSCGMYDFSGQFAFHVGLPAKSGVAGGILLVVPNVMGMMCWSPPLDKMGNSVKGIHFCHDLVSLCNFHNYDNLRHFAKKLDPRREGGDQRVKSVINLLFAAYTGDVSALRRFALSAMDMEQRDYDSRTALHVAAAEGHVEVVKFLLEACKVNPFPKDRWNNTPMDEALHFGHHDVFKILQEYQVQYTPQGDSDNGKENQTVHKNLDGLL

[6] = target: T1, Glutaminase kidney isoform, mitochondrial (Mus musculus); assay: Inhibition of GLS1 in mouse kidney extract at 10 mM relative to control; assay type: tissue-based
[7] = target: T2, Glutaminase kidney isoform, mitochondrial (Homo sapiens); assay: Inhibition of human recombinant GLS1 at 10 mM relative to control

Row | SMILES | inhibition [1] | other results
1 | O=C(Nc1ccccc1)c1cc(Cc2ccccc2)n[nH]1 | inactive | 
2 | O=C(N[C@H]1CC[C@H](O)CC1)c1cc(-c2ccccc2)c[nH]1 | inactive | 
3 | [N-]=[N+]=CC(=O)CC[C@H](N)C(=O)O |  | inhibition [2]: 65.5%; inhibition [3]: Active; inhibition [4]: 55.5%; inhibition [5]: 84.1%
4 | CN(C)C(=O)c1cc(Cc2ccccc2)n[nH]1 | inactive | 
5 | CON(C)C(=O)c1cc(Cc2ccccc2)n[nH]1 | inactive | 
6 | O=C(N[C@H]1CC[C@H](O)CC1)c1cc(-c2ccccc2)n[nH]1 |  | inhibition [6]: 93.3%; inhibition [4]: 81.4%; inhibition [7]: 97.1%
7 | O=C(N[C@H]1CC[C@H](O)CC1)c1cc(Cc2ccc(F)cc2)n[nH]1 |  | inhibition [6]: 90.1%; inhibition [4]: 73.2%; inhibition [7]: 94.6%
8 | O=C(N[C@H]1CC[C@H](O)CC1)c1ccc(-c2ccccc2)[nH]1 | inactive | 
9 | O=C1CCC(NC(=O)c2cc(Cc3ccccc3)n[nH]2)CC1 | inactive | 
10 | CNC(=O)c1cc(Cc2ccccc2)n[nH]1 | inactive | 
11 | O=C(c1cc(Cc2ccccc2)n[nH]1)N1CCOCC1 | inactive | 
12 | O=C(N[C@H]1CC[C@H](O)CC1)c1cc(CCc2ccccc2)n[nH]1 |  | inhibition [6]: 58.6%
13 | NNC(=O)c1cc(-c2ccccc2)n[nH]1 |  | inhibition [6]: 52.6%
14 | O=C(c1cc(Cc2ccccc2)n[nH]1)N1CCCCC1 | inactive | 
15 | O=C(N[C@H]1CC[C@H](O)CC1)c1ncc(-c2ccccc2)[nH]1 | Active | 
16 | O=C(c1cc(Cc2ccccc2)n[nH]1)N1CCCC1 | inactive | 
17 | O=C(c1cc(Cc2ccccc2)n[nH]1)N1CCCCCC1 | inactive | 
18 | O=C(c1cc(Cc2ccccc2)n[nH]1)N1CCC(O)CC1 | inactive | 
19 | O=C(N[C@H]1CC[C@H](O)CC1)c1cc(Cc2ccccc2)n[nH]1 |  | inhibition [6]: 99.4%; inhibition [4]: 19.7%
20 | O=C(NCCO)c1cc(Cc2ccccc2)n[nH]1 | inactive | 
